The values below come from patent US5684012A, “Dimeric piperidine, tetrahydropyridine and piperazine derivatives” (H. Lundbeck A/S, priority 1992, dated 1997).

Where a name gives a salt, the structure may show the parent alone.

The target in one experiment is sigma receptors. Description: Inhibition of ^3H-DTG binding to sigma receptors in rat brain in vitro. The following applies: Table I; 2 nM ^3H-DTG, rat brain without cerebellum, 25° C., 20 min.
In turn, `c1ccc2c(c1)COC21CCN(CCCCN2CCC3(CC2)OCc2ccccc23)CC1` [Compound 1a, 1,4-Bis[spiro[isobenzofuran-1(3 H),4'-piperidin]-1'-yl]butane] gave an IC50 of 0.64 nM. On the same count and under the same terms, the figure for `Fc1ccc(C2CCN(CCCCN3CCC(c4ccc(F)cc4)CC3)CC2)cc1` [Compound 1b, 1,4-Bis[4-(4-fluorophenyl)piperidin-1-yl]butane] is 0.41 nM; for `c1ccc2c(c1)COC1(CCN(CCCCN3CCC4(CC3)Cc3ccccc3CO4)CC1)C2` [Compound 1c, 1,4-Bis[1,4-dihydro-spiro[2-benzopyran-3,4'-piperidin]-1'-yl]butane] it is 16 nM. Still for that read-out and setting: then `Fc1ccc(C2CCN(CCCCCN3CCC(c4ccc(F)cc4)CC3)CC2)cc1` [Compound 1d, 1,5-Bis[4-(4-fluorophenyl)piperidin-1-yl]pentane, 2.5 fumarate], with 1.4 nM; and `Fc1ccc(N2CCN(CCCCN3CCN(c4ccc(F)cc4)CC3)CC2)cc1` [Compound 1e, 1,4-Bis[4-(4-fluorophenyl)piperazin-1-yl]butane], with 0.89 nM; and `c1ccc2c(c1)COC21CCN(CCCCCCN2CCC3(CC2)OCc2ccccc23)CC1` [Compound 1f, 1,6-Bis[spiro[isobenzofuran-1(3 H),4'-piperidin]-1'-yl]hexane], with 0.71 nM.

On to `Fc1ccc2c(c1)C1(CCN(CCCCN3CCC4(CC3)OCc3ccc(F)cc34)CC1)OC2` [Compound 1g, 1,4-Bis[6-fluoro-spiro[isobenzofuran-1(3 H),4'-piperidin]-1'-yl]butane], for which the IC50 came to 0.44 nM. The same measure, in the same setting: then `c1ccc2c(c1)COC21CCN(CCCCCN2CCC3(CC2)OCc2ccccc23)CC1` [Compound 1h, 1,5-Bis[spiro[isobenzofuran-1(3 H),4'-piperidin]-1-yl]pentane tetrafumarate], with 2 nM; and `c1ccc2c(c1)OC1(CCN(CCCCN3CCC4(CC3)Oc3ccccc3O4)CC1)O2` [Compound 1i, 1,4-Bis[spiro[1,3-benzodioxol-2,4'-piperidin]-1'-yl]butane], with 45 nM; and `FC(F)(F)c1ccc2c(c1)C1(CCN(CCCCN3CCC4(CC3)OCc3ccc(C(F)(F)F)cc34)CC1)OC2` [Compound 1j, 1,4-Bis[6-(trifluoromethyl)-spiro[isobenzofuran-1(3 H),4'-piperidin]-1-yl]butane, dihydrochloride], with 19 nM. Still for that read-out and setting: then `c1ccc2c(c1)COCC21CCN(CCCCN2CCC3(CC2)COCc2ccccc23)CC1` [Compound 1k, 1,4-Bis[1,3-dihydro-spiro[2-benzopyran-4,4'-piperidin]-1'-yl]butane], with 8.7 nM; and `Cc1ccc2c(c1)COC21CCN(CCCCN2CCC3(CC2)OCc2cc(C)ccc23)CC1` [Compound 1l, 1,4-Bis[5-methyl-spiro[isobenzofuran-1(3 H),4'-piperidin]-1-yl]butane], with 23 nM; and `Fc1cccc2c1C1(CCN(CCCCN3CCC4(CC3)OCc3cccc(F)c34)CC1)OC2` [Compound 1m, 1,4-Bis[7-fluoro-spiro[isobenzofuran-1(3 H),4'-piperidin]-1'-yl]butane], with 5.1 nM. The same measure, in the same setting: then `c1ccc2c(c1)COC21CC2CCC(C1)N2CCCCN1C2CCC1CC1(C2)OCc2ccccc21` (stereo not drawn) [Compound 1n, 1,4-Bis[spiro[isobenzofuran-1(3 H),3'-8'-azabicyclo[3',2',1']octan]-8'-yl]butane], with 99 nM; and `Fc1ccc(C2=CC3CCC(C2)N3CCCCN2C3C=C(c4ccc(F)cc4)CC2CC3)cc1` [Compound 1o, 1,4-Bis[3-(4-fluorophenyl)-8-azabicyclo[3,2,1]oct-2-en-8-yl]butane], with 74 nM. Compound `C1=CC2(CCN(CCCCN3CCC4(C=Cc5ccccc5O4)CC3)CC2)Oc2ccccc21` [Compound 1p, 1,4-Bis[spiro[1-benzopyran-2,4'-piperidin]-1-yl]butane, difumarate] displayed an IC50 of 32 nM. The compound `c1ccc2c(c1)CCCC21CCN(CCCCN2CCC3(CCCc4ccccc43)CC2)CC1` [Compound 1q, 1,4-Bis[3,4-dihydro-spiro[naphthalene-1(2 H),4'-piperidin]-1'-yl]butane] yielded an IC50 of 4 nM.

In turn, `c1ccc2c(c1)CCC1(CCN(CCCCN3CCC4(CCc5ccccc5O4)CC3)CC1)O2` [Compound 1r, 1,4-Bis[3,4-dihydro-spiro[1-benzopyran-2,4'-piperidin]-1-yl]butane, difumarate] registered an IC50 of 130 nM. The compound `c1ccc2c(c1)CSC21CCN(CCCCN2CCC3(CC2)SCc2ccccc23)CC1` [Compound 1s, 1,4-Bis[spiro[isobenzothiophene-1(3 H),4'-piperidin]-1-yl]butane] showed an IC50 of 0.04 nM. On the same count and under the same terms, the figure for `c1ccc2c(c1)CCOC21CCN(CCCCN2CCC3(CC2)OCCc2ccccc23)CC1` [Compound 1t, 1,4-Bis[spiro[1-benzopyran-2,4'-piperidin]-1-yl]butane, 1.25 fumarate] is 0.38 nM.

In the case of `c1ccc2c(c1)OCCC21CCN(CCCCN2CCC3(CCOc4ccccc43)CC2)CC1` [Compound 1u, 1,4-Bis[spiro[1-benzopyran-4,4'-piperidin]-1'-yl]butane], the IC50 worked out at 0.17 nM. Still for that read-out and setting: the figure for `c1ccc2c(c1)COC21CCN(CCCN2CCC3(CC2)OCc2ccccc23)CC1` [Compound 2a, 1,3-Bis[spiro[isobenzofuran-1(3 H),4'-piperidin]-1'-yl]propane difumarate] is 0.76 nM. Same read-out and setting: then `Fc1ccc(C2CCN(CCCN3CCC(c4ccc(F)cc4)CC3)CC2)cc1` [Compound 2b, 1,3-Bis[4-(4-fluorophenyl)piperidin-1-yl]propane], with 0.17 nM; and `c1ccc2c(c1)COC21CCN(CCN2CCC3(CC2)OCc2ccccc23)CC1` [Compound 2c, 1,2-Bis[spiro[isobenzofuran-1(3 H),4'-piperidin]-1'-yl]ethane], with 0.23 nM.

For the compound `Fc1ccc(C2CCN(CCN3CCC(c4ccc(F)cc4)CC3)CC2)cc1` [Compound 2d, 1,2-Bis[4-(4-fluorophenyl)piperidin-1-yl]ethane], the IC50 came to 0.5 nM.

On to `c1ccc2c(c1)COC21CCN(CCN(CCN2CCC3(CC2)OCc2ccccc23)C2CCCC2)CC1` [Compound 3a, N,N-Bis[2-spiro[isobenzofuran-1(3 H),4'-piperidin]-1'-ylethyl]-N-cyctopentylamine, trihydrochloride], for which the IC50 came to 1.5 nM. With `CN(CCN1CCC2(CC1)OCc1ccccc12)CCN1CCC2(CC1)OCc1ccccc12` [Compound 3b, N,N-Bis[2-spiro[isobenzofuran-1(3 H),4'-piperidin]-1'-ylethyl]-N-methylamine, trihydrochloride], the IC50 came to 4.9 nM. Same read-out and setting: the figure for `C1=CC2(CCN(CCCCN3CCC4(C=Cc5ccccc54)CC3)CC2)c2ccccc21` [Compound 4a, 1,4-Bis[spiro[ind-2-en-1,4'-piperidin]-1'-yl]butane] is 4 nM. On the same count and under the same terms, the figure for `c1ccc2c(c1)CCC21CCN(CCCCN2CCC3(CCc4ccccc43)CC2)CC1` [Compound 5a, 1,4-Bis[spiro[indan-1,4'-piperidin]-1'-yl]butane] is 3.1 nM; for `Fc1ccc(C2=CCN(CCCCN3CC=C(c4ccc(F)cc4)CC3)CC2)cc1` [Compound 6a, 1,4-Bis[4-(4-fluorophenyl)-1,2,3,6-tetrahydropyridin-1-yl]butane] it is 0.31 nM. The compound `Fc1ccc(C2CCN(CCN(CCN3CCC(c4ccc(F)cc4)CC3)c3ccccc3)CC2)cc1` [Compound 7a, N,N-Bis[2-[4-(4-fluorophenyl)piperidin-1-yl]ethyl]aniline] gave an IC50 of 3.6 nM. Compound `Fc1ccc(C(CCN2CCC3(CC2)OCc2ccccc23)CCN2CCC3(CC2)OCc2ccccc23)cc1` [Compound 7b, 1,5-Bis[spiro[isobenzofuran-1(3 H),4'-piperidin]-1'-yl]-3-(4-fluorophenyl)pentane, difumarate] displayed an IC50 of 0.72 nM. Still for that read-out and setting: the figure for `c1ccc2c(c1)COC21CCN(CCSCCN2CCC3(CC2)OCc2ccccc23)CC1` [Compound 8a, Bis[2-spiro[isobenzofuran-1(3 H),4'-piperidin]-1-ylethyl]sulphide, difumarate] is 0.78 nM; for `O=S(=O)(CCN1CCC2(CC1)OCc1ccccc12)CCN1CCC2(CC1)OCc1ccccc12` [Compound 9a, Bis[2-spiro[isobenzofuran-1(3 H),4'-piperidin]-1'-ylethyl]sulphone] it is 1800 nM.

`c1ccc2c(c1)COC21CCN(CCOCCN2CCC3(CC2)OCc2ccccc23)CC1` [Compound 10a, Bis[2-spiro[isobenzofuran-1(3 H),4'-piperidin]-1'-ylethyl]ether,dihydrochloride]: the IC50 came out at 2.5 nM.

`Cc1ccc2c(c1)COC21CCN(CCCCCCN2CCC3(CC2)OCc2cc(C)ccc23)CC1` [Compound 11a, 1,6-Bis[5-methyl-spiro[isebenzofuran-1(3 H),4'-piperidin]-1-yl]hexane] showed an IC50 of 9.7 nM.

Compound `OC(CN1CCC(c2ccc(F)cc2)CC1)CN1CCC(c2ccc(F)cc2)CC1` [Compound 12a, 1,3-Bis[4-(4-fluorophenyl)piperidin-1-yl]-2-propanol] showed an IC50 of 2.4 nM. On the same count and under the same terms, then `O=C(CN1CCN(c2ccc(F)cc2)CC1)CN1CCN(c2ccc(F)cc2)CC1` [Compound 13a, 1,3-Bis[4-(4-fluorophenyl)piperazin-1-yl]-2-propanone], with 2500 nM.

Tested on in another experiment: not given
Test: not given
Conditions: clinical; Snyder and Largent 1989; cited from earlier work.
`C[C@@H]1CN(CCCn2c3ccccc3c3ccccc32)C[C@H](C)N1` [Rimcazole, reference compound]: the “effects in the treatment of psychosis” value is listed as “clinically shows effects in the treatment of psychosis”.

Usually IC50 stands for the concentration that inhibits the measured activity by half. Low values mean higher potency, high ones lower potency.
